Assay results published in patent publication US20100197738A1, “FLY CONTROL METHOD” (priority 2007, published 2010).

Test system: Adult L. serricata (blowflies)
Test: Test A: adult blowflies on blood agar containing test compound, scored by number of dead flies
Format: in vivo
Settings: 4 flies in test
Method: Adult L. serricata (blowflies): Adult flies are placed on beds of blood agar (in individual test wells; 4 flies per well) in which test compound, (3-bromo-N-[4-chloro-2-methyl-6-[(methylamino)carbonyl]phenyl]-1-(3-chloro-2-pyridinyl)-1H-pyrazole-5-carboxamide), was dissolved/suspended prior to hardening of agar. Flies can take up test compound by both ingestion and contact. Assays are scored by number of dead flies at 2 hours, 4 hours, and 24 hours.

SMILES	Number dead flies at 2 hours (Rate 1 ppm in blood agar)	Number dead flies at 4 hours (Rate 1 ppm in blood agar)	Number dead flies at 24 hours (Rate 1 ppm in blood agar)	Number dead flies at 2 hours (Rate 10 ppm in blood agar)	Number dead flies at 4 hours (Rate 10 ppm in blood agar)	Number dead flies at 24 hours (Rate 10 ppm in blood agar)	Number dead flies at 2 hours (Rate 25 ppm in blood agar)	Number dead flies at 4 hours (Rate 25 ppm in blood agar)	Number dead flies at 24 hours (Rate 25 ppm in blood agar)	Number dead flies at 2 hours (Rate 50 ppm in blood agar)	Number dead flies at 4 hours (Rate 50 ppm in blood agar)	Number dead flies at 24 hours (Rate 50 ppm in blood agar)	Number dead flies at 2 hours (Rate 100 ppm in blood agar)	Number dead flies at 4 hours (Rate 100 ppm in blood agar)	Number dead flies at 24 hours (Rate 100 ppm in blood agar)
CNC(=O)c1cc(Cl)cc(C)c1NC(=O)c1cc(Br)nn1-c1ncccc1Cl [Test Compound, 3-bromo-N-[4-chloro-2-methyl-6-[(methylamino)carbonyl]phenyl]-1-(3-chloro-2-pyridinyl)-1H-pyrazole-5-carboxamide]	0	0	0	0	0	1	0	0	2	0	0	2	0	0	3
CCOP(=S)(OCC)Oc1nc(Cl)c(Cl)cc1Cl [Chloropyriphos, O,O-diethyl-O-3,5,6-trichloro-2-pyridyl-phosphorothioate]	0	1	4	1	4	4	3	4	4	4	4	4	4	4	4
